Measured values from ChEMBL document CHEMBL6134851, “Comparative Study on Covalent and Noncovalent Endogenous Albumin-Binding β-Glucuronidase-Activated SN38 Prodrugs for Antitumor Efficacy” (J Med Chem, 2025).
Calls of active or inactive are those of the source. No cut-off for these calls is given here.

Assays:
[1] = Cmax in female BALB/c mouse at 15 mg/kg measured up to 5 hrs by HPLC analysis; assay type: ADME, organism-based; conditions: in vivo
in vivo = conditions: female, BALB/c, mouse, 15 mg/kg
[2] = Toxicity in female BALB/cA nude mouse assessed as damage in heart at 15 mg/kg, iv measured after 24 hrs by H and E staining based analysis; assay type: organism-based; conditions: in vivo
[3] = Toxicity in female BALB/cA nude mouse assessed as necrosis in tumor tissue at 15 mg/kg, iv measured after 24 hrs by H and E staining based analysis; assay type: organism-based; conditions: in vivo
[4] = Prodrug release in female BALB/c nude mouse tumor assessed as (S)-4,11-diethyl-4,9-dihydroxy-1,12-dihydro-14H-pyrano[3',4':6,7]indolizino[1,2-b]quinoline-3,14(4H)-dione accumulation at 15 mg/kg measured after 1 hr by HPLC analysis; assay type: ADME, organism-based, Neoplasm; conditions: in vivo
[5] = Toxicity in female BALB/cA nude mouse assessed as pulmonary damage at 15 mg/kg, iv BID for 35 days by H and E staining based analysis; assay type: organism-based; conditions: in vivo, 840 h, time 35 day
[6] = Toxicity in female BALB/cA nude mouse assessed as mortality at 15 mg/kg, iv administered twice per week measured after 107 days; assay type: organism-based; conditions: in vivo, 2568 h, time 107 day
[7] = Toxicity in female BALB/cA nude mouse assessed as effect on body weight loss at 15 mg/kg, iv administered twice per week measured after 107 days; assay type: organism-based; conditions: in vivo, 2568 h, time 107 day
BXPC-3 [8] = assay: Antitumor activity against human BXPC-3 cells xenografted in female BALB/cA nude mouse model assessed as suppression of tumor growth by measuring relative tumor proliferation rate at 38 mg/kg, iv measured after 35 days; assay type: functional, organism-based; conditions: time 35.0 day
[9] = Toxicity in female BALB/cA nude mouse assessed as appearance of fibrosis in heart at 15 mg/kg, iv measured after 24 hrs by H and E staining based analysis; assay type: organism-based; conditions: in vivo
[10] = Toxicity in female BALB/cA nude mouse assessed as appearance of alveolar wall thickening at 15 mg/kg, iv BID for 35 days by H and E staining based analysis; assay type: organism-based; conditions: in vivo, 840 h, time 35 day
HCT-116 [11] = assay: Antitumor activity against human HCT-116 cells xenografted in female BALB/cA nude mouse model assessed as relative tumor proliferation rate at 15 mg/kg, iv administered twice per week measured after 107 days; assay type: functional, organism-based; conditions: time 107.0 day
[12] = Toxicity in female BALB/cA nude mouse assessed as damage in lung at 15 mg/kg, iv measured after 24 hrs by H and E staining based analysis; assay type: organism-based; conditions: in vivo
HCT-116 [13] = assay: Antitumor activity against human HCT-116 cells xenografted in female BALB/cA nude mouse model assessed as relative tumor proliferation rate at 15 mg/kg, iv administered twice per week measured on 107 days relative to control; assay type: functional; conditions: time 107 day
[14] = Toxicity in female BALB/cA nude mouse assessed as appearance of fibrosis in lung at 15 mg/kg, iv measured after 24 hrs by H and E staining based analysis; assay type: organism-based; conditions: in vivo
BXPC-3 [15] = assay: Antitumor activity against human BXPC-3 cells xenografted in female BALB/cA nude mouse model assessed as suppression of tumor growth by measuring relative tumor proliferation rate at 38 mg/kg, iv measured after 24 days relative to control; assay type: functional; conditions: time 24 day
[16] = Toxicity in female BALB/cA nude mouse assessed as appearance of loss of alveolar architecture at 15 mg/kg, iv BID for 35 days by H and E staining based analysis; assay type: organism-based; conditions: in vivo, 840 h, time 35 day

CCc1c2c(nc3ccc(OC(=O)N4CCC(N5CCCCC5)CC4)cc13)-c1cc3c(c(=O)n1C2)COC(=O)[C@]3(O)CC [IRINOTECAN]
Cmax [1]: 3.04 µg/mL | AUC(0-t) at 5 h (in vivo): 3.12 µg·h/mL | Activity [2]: Toxic | Activity [3]: Toxic | Drug metabolism [4]: 0.032 % ID/g | Activity [5]: Toxic | Activity [6]: Non-toxic | Activity [7]: Toxic | Activity (BXPC-3 [8]): inactive | Activity [9]: Toxic | Activity [10]: Toxic | Activity (HCT-116 [11]): inactive | Activity [12]: Toxic | Activity (HCT-116 [13]): 50.36% | Activity [14]: Toxic | Activity (BXPC-3 [15]): 43.53% | Activity [16]: Toxic
